Results from patent US20250041277A1, “METHODS AND DOSING REGIMENS COMPRISING A CDK2 INHIBITOR AND A CDK4 INHIBITOR FOR TREATING CANCER” (PFIZER INC., priority 2021, published 2025).

Key:
T47D breast cancer model = experiment: In vivo efficacy, HR+/HER2− T47D breast cancer model (Example 3); design: species or system NSG mice; conditions: Day 41, PO BID: PF-07104091 150 mpk, PF-07220060 60 mpk, palbociclib 10 mpk
Description: (§1) Female NSG mice (Jackson Lab) were subcutaneously implanted with fragment (27 mm^3 to 64 mm^3 size) into the dorsal region. All mice for T47D, HCC1428 and ST941 PBR studies were supplemented with 8.5 μg/mL estradiol water (β-Estradiol Sigma-Aldrich, cat #E2758-5G) and gave ad libitum till end of study. For the in vivo efficacy studies, tumor volume and body weights were measured twice a week. Tumor volume was calculated using the [(Length×Width×Width)/2)] formula. TGI was calculated as 100*(1−ΔT/ΔC). The ΔC (ΔT) was obtained by subtracting the mean tumor burden in the vehicle (treated) group on the first day of treatment (Day 0) from the mean tumor burden in vehicle (treated) group on the assessment day. Statistical analysis was performed using ANCOVA when the mean tumor volume in vehicle treated mice reached tumor cutoff size.
The T47D model was established by implanting passage 3 tumor fragments into recipient mice. To establish the T47D donor mice, tumor cells (5×10^6 cell/mouse with 50% Cultrex® Basement Membrane Matrix) were subcutaneously implanted in female NSG mice. Once reaching a range of 700 to 800 mm^3, donor tumors were subsequently transplanted into secondary recipient mice for a study expansion. […] PF-07104091 (lot 016), PF-07220060 (lot 019) and PD-0332991 (lot GR08498) were administered (PO.) BID (7 hr apart). All mice received treatment continuously until Day 41. TGI was assessed on Day 41 post first dose.

[1] = system: HCC1428 breast cancer model; experiment: In vivo efficacy, HR+/HER2− HCC1428 breast cancer model (Example 4); design: species or system NSG mice; conditions: HCC1428, Day 42; PO BID: PF-07104091 120 mpk, PF-07220060 60 mpk, PF-06873600 30 mpk, palbociclib 10 mpk; fulvestrant 10 mpk SC
Description: as §1, with “HCC1428, MCF7” for “T47D, HCC1428”
The HCC1428 model was established by implanting passage 1 tumor fragments into recipient mice. To establish the HCC1428 donor mice, tumor cells (5×10^6 cell/mouse with 50% Cultrex® Basement Membrane Matrix) were subcutaneously implanted in female NSG mice. Once reaching a range of 700 to 800 mm^3, donor tumors were subsequently transplanted into secondary recipient mice for a study expansion. […] PF-07104091 (lot 022), PF-07220060 (lot CPo126812-01-SY-5700-01), PF-06873600 (lot 022) and PD-0332991 (lot GR08498) were administered (PO) BID (7 hr apart) while fulvestrant (lot 20160224-2) at 10 mg/kg, SC twice in the first week, then weekly afterwards. All mice received treatment continuously until Day 42. TGI was assessed on Day 42 post first dose.

ST941 PBR PDX model = experiment: In vivo efficacy, palbociclib-resistant ST941 PBR PDX model (Example 4); design: species or system NSG mice; conditions: ST941PBR, Day 28; PO BID: PF-07104091 120 mpk, PF-07220060 60 mpk, PF-06873600 30 mpk, palbociclib 10 mpk; fulvestrant 10 mpk SC
Description: as §1, with “HCC1428, MCF7” for “T47D, HCC1428”
We established model in house by continuous treatment of the ST941 PBR tumor bearing mice with PD-0332991 at 50 mg/kg, PO QD plus fulvestrant at 10 mg/kg, SC twice in the first week, then weekly thereafter. To propagate donors for the TGI study, tumors were transplanted to recipient mice. One week after the re-implantation, the recipient mice received continuous treatment with palbociclib plus fulvestrant (dosing schedule described above). After 1 to 2 serial in vivo propagation with the same treatment regimen, the resistant tumors in the range of 700 to 800 mm^3 were re-implanted for a study expansion. The remaining tumor fragments were viably frozen for future use.
The live donor mice were established by implanting ST941 PBR (p13) tumor fragments. Once reaching a range of 700 to 800 mm^3, the donor tumors were subsequently transplanted into secondary recipient mice for a study expansion. To maintain the resistant clones, the ST941 PBR tumor bearing mice were treated with PD-0332991 at 50 mg/kg, PO. QD plus fulvestrant at 10 mg/kg, SC twice in the first week, then weekly afterwards for 10 weeks. The treatment was initiated one week after the implant until day of randomization for study enrollment. […] PF-07104091 (lot 021), PF-07220060 (lot CPo126812-01-SY-5700-01), PF-06873600 (lot 022) and PD-0332991 (lot GR08498) were administered (PO) BID (7 hr apart) while fulvestrant (lot 20160224-2) at 10 mg/kg, SC twice in the first week, then weekly afterwards. All mice received treatment continuously until Day 28. TGI was assessed on Day 28 post first dose.

NCIH1944 = experiment: Combinatorial activity in LUAD cell line NCIH1944; format: cell-based; conditions: Homo sapiens, NCI-H1944; NCIH1944, KRAS G13D; single agent; read-out: (nM) s.a.
Description: Combinatorial activity of PF-07104091 and PF-07220060 was assessed in LUADs as single agents (s.a.) or in combination.

| Compound | TGI % (T47D breast cancer model) [%] | TGI % [1] [%] | TGI % (ST941 PBR PDX model) [%] | IC50 (NCIH1944) [nM] |
| --- | --- | --- | --- | --- |
| CC(C)n1c(C(C)(C)O)nc2c(F)cc(-c3nc(N[C@@H]4CCOC[C@H]4O)ncc3Cl)cc21 [PF-07220060, 1,5-anhydro-3-({5-chloro-4-[4-fluoro-2-(2-hydroxypropan-2-yl)-1-(propan-2-yl)-1H-benzimidazol-6-yl]pyrimidin-2-yl}amino)-2,3-dideoxy-D-threo-pentitol] | 73 | 70 | 19 | 398 |
| COCc1cc(C(=O)Nc2cc([C@H]3CC[C@@H](OC(=O)NC(C)C)C3)[nH]n2)n(C)n1 [PF-07104091, (1R,3S)-3-[3-({[3-(methoxymethyl)-1-methyl-1H-pyrazol-5-yl]carbonyl}amino)-1H-pyrazol-5-yl]cyclopentyl propan-2-ylcarbamate] | 82 | 79 | 36 | 227 |
